Several values for one entry are separate records, joined by “and”; a condition that tells them apart may be missing. Equal values may be shown once.
Assays:
[1] = system: HER3-ss+4aa/Gaussia Luciferase; assay: Dox-Induced Her3-ss-Gluc Assay; assay type: cell-based; settings: 24 hr Dox induction; 293FRT/TO cells; read-out: 24 hr Dox Inducible Her3(ss + 4)Gluc 293FRT/TO: Mean IC50
Outline: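 Stable Flp-In 293 T-REx line expressing Gaussia luciferase fused to the HER3 signal sequence plus 4 amino acids under tetracycline-regulated (T-REx) control. Cells plated the day before, then treated with compound dilutions in DMSO/media containing doxycycline and incubated at 37° C., 5% CO2.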

[2] = Liver Microsome Stability Assay (human); settings: human liver microsomes, with NADPH, 1.0 uM compound
Method: (§1) Stability of a compound was assessed in the presence of liver microsomes from various sources—mouse, rat, monkey and human liver microsomes. 1.0 uM compound, 0.4% DMSO in 0.1 M Potassium Phosphate with 1.0 mg/mL liver microsomes, were incubated at 37° C. with or without 1 mM NADPH. The samples were quenched at 0, and 30 minutes.

[3] = system: IL-2-FL/Gaussia Luciferase; assay: Dox Induced IL2-FL-Gluc Assay; assay type: cell-based; settings: for IC50: 24 hr Dox induction, 293FRT/TO cells, read-out: 24 hr Dox Inducible IL2FLGluc 293FRT/TO: Mean IC50; for 24 hr Dox Inducible IL2FLGluc 293FRT/TO: IL2/PD1: ratio of IL2FLGluc IC50 to PD1ssGluc IC50
Outline: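 Flp-In 293 T-REx cells stably carrying doxycycline-inducible full-length IL-2 (aa 1-153) fused at its C-terminus to Gaussia luciferase, selected with hygromycin and blasticidin. Cells were plated the day before, then treated with compounds in DMSO/media containing doxycycline at 37° C, 5% CO2.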

[4] = Liver Microsome Stability Assay (mouse); settings: mouse liver microsomes, with NADPH, 1.0 uM compound
Method: as §1

[5] = system: multiple myeloma cell line U266B1; assay: U266 Cell Viability Assay; assay type: cell-based, human; settings: U266B1 cells, Celltiter-Glo
Outline: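 Cells grown in RPMI 1640 with 10% FBS, 2 mM glutamine and penicillin/streptomycin were exposed to compound dilutions in DMSO/media for 48 hours at 37° C., 5% CO2. Viability was read by CellTiter-Glo luminescence. Undefined stereocentres mean data for stereoisomer mixtures.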

[6] = Liver Microsome Stability Assay (rat); settings: rat liver microsomes, with NADPH, 1.0 uM compound
Method: as §1

[7] = system: multiple myeloma cell line NCI-H929; assay: H929 Cell Viability Assay; assay type: cell-based, human; settings: NCI-H929 cells, Celltiter-Glo
Outline: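 NCI-H929 cells, resuspended in RPMI 1640 with 10% FBS and 2 mM glutamine, were treated with compound dilutions in DMSO/media and incubated 48 hours at 37° C, 5% CO2. Viability was read by CellTiter-Glo luminescence. Compounds drawn without stereochemistry were tested as stereoisomer mixtures.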

[8] = system: TNFα-FL/Gaussia Luciferase; assay: Dox Induced TNFα-FL-Gluc Assay; assay type: cell-based; settings: for IC50: 24 hr Dox induction, 293FRT/TO cells, read-out: 24 hr Dox Inducible TNFaFLGluc 293FRT/TO: Mean IC50; for 24 hr Dox Inducible TNFaFLGluc 293FRT/TO: TNF/PD1: ratio of TNFaFLGluc IC50 to PD1ssGluc IC50
Outline: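 Flp-In 293 T-REx cells stably expressing full-length TNFα (aa 1-233) fused at its C-terminus to Gaussia luciferase under tetracycline-regulated control were plated the day before assay. Compound dilutions in DMSO/media containing doxycycline were added and incubated at 37 °C, 5% CO2. Unspecified stereochemistry denotes stereoisomer mixtures.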

[9] = system: PD1-ss+10aa/Gaussia Luciferase; assay: Dox-Induced PD1-ss-Gluc Assay; assay type: cell-based; settings: 24 hr Dox induction; 293FRT/TO cells; read-out: 24 hr Dox Inducible PD1ssGluc 293FRT/TO: Mean IC50
Outline: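 Flp-In 293 T-REx, stable line; Tet-regulated PD1-ss+10aa fused to Gaussia luciferase; plated day prior; cpd + doxycycline in DMSO/media; 37 °C, 5% CO2.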

[10] = Liver Microsome Stability Assay (monkey); settings: monkey liver microsomes, with NADPH, 1.0 uM compound
Method: as §1

Row | Compound | IC50 [1] | Liver Microsome Stability (Multiple Species): Human - % Remaining after 30 min w/NADPH [2] | IC50 [3] | Liver Microsome Stability (Multiple Species): Mouse - % Remaining after 30 min w/NADPH [4] | EC50 ([5]; Homo sapiens, U-266, 48 h) | Liver Microsome Stability (Multiple Species): Rat - % Remaining after 30 min w/NADPH [6] | EC50 ([7]; Homo sapiens, NCI-H929, 48 h) | IC50 [8] | IC50 [9] | Liver Microsome Stability (Multiple Species): Monkey - % Remaining after 30 min w/NADPH [10] | EC50 ([5]; 48 hr) | EC50 ([7]; 48 hr) | 24 hr Dox Inducible IL2FLGluc 293FRT/TO: IL2/PD1 [3] | 24 hr Dox Inducible TNFaFLGluc 293FRT/TO: TNF/PD1 [8]
1 | O=C(Nc1nc([C@H]2CCCN2c2ccc(CCO)cc2)cs1)c1cccn1Cc1ccnc(F)c1 [Compound A78, (R)-1-((2-fluoropyridin-4-yl)methyl)-N-(4-(1-(4-(2-hydroxyethyl)phenyl)pyrrolidin-2-yl)thiazol-2-yl)-1H-pyrrole-2-carboxamide] | 27.7 nM | 6.01% | 30.1 nM | 6.09% | > 25000 nM | 3.42% | 495 nM | 159 nM | 13.2 nM | 3.13% |  |  | 2.3 | 12
2 | CC(=O)N1CCC(Oc2ccc(N3CCC[C@@H]3c3csc(NC(=O)c4cccn4Cc4ccnc(F)c4)n3)cc2)C1 (stereo partly drawn) [Compound A79, N-(4-((2R)-1-(4-((1-acetylpyrrolidin-3-yl)oxy)phenyl)pyrrolidin-2-yl)thiazol-2-yl)-1-((2-fluoropyridin-4-yl)methyl)-1H-pyrrole-2-carboxamide] | 23.2 nM | 5.48% | 29.7 nM | 5.88% | > 25000 nM | 37.7% | 345 nM | 171 nM | 10.8 nM | 0.78% |  |  | 2.8 | 15.9
3 | O=C(Nc1nc([C@H]2CCCN2c2ccc(OC3CCNC3)cc2)cs1)c1cccn1Cc1ccnc(F)c1 (stereo partly drawn) [Compound A80, 1-((2-fluoropyridin-4-yl)methyl)-N-(4-((2R)-1-(4-(pyrrolidin-3-yloxy)phenyl)pyrrolidin-2-yl)thiazol-2-yl)-1H-pyrrole-2-carboxamide] | 1070 nM | 51% | 1840 nM | 71.9% | 7780 nM | 88.1% | 5730 nM | 11400 nM | 595 nM | 17.6% |  |  | 3.1 | 19.1
4 | CC(=O)N1CC=C(Oc2ccc(N3CCC[C@@H]3c3csc(NC(=O)c4cccn4Cc4ccnc(F)c4)n3)cc2)CC1 [Compound A82, (R)-N-(4-(1-(4-((1-acetyl-1,2,3,6-tetrahydropyridin-4-yl)oxy)phenyl)pyrrolidin-2-yl)thiazol-2-yl)-1-((2-fluoropyridin-4-yl)methyl)-1H-pyrrole-2-carboxamide] | 210 nM | 3.95% | 249 nM | 0.84% | > 25000 nM | 15.3% | 5660 nM | 653 nM | 78.6 nM | 0.16% |  |  | 3.2 | 8.31
5 | CC(=O)N1CCC[C@H](Oc2ccc(N3CCC[C@@H]3c3csc(NC(=O)c4cccn4Cc4ccnc(F)c4)n3)cc2)C1 [Compound A84, N-(4-((R)-1-(4-(((S)-1-acetylpiperidin-3-yl)oxy)phenyl)pyrrolidin-2-yl)thiazol-2-yl)-1-((2-fluoropyridin-4-yl)methyl)-1H-pyrrole-2-carboxamide] | 62.6 nM | 0.5% | 87 nM | 1% | > 25000 nM | 2.51% | 1050 nM | 310 nM | 40.7 nM | 0.73% |  |  | 2.1 | 7.61
6 | O=C(Nc1nc([C@H]2CCCN2c2ccc(O[C@@H]3CCCNC3)cc2)cs1)c1cccn1Cc1ccnc(F)c1 [Compound A87, 1-((2-fluoropyridin-4-yl)methyl)-N-(4-((R)-1-(4-(((R)-piperidin-3-yl)oxy)phenyl)pyrrolidin-2-yl)thiazol-2-yl)-1H-pyrrole-2-carboxamide] | 1150 nM | 51.1% | 2580 nM | 75.6% | 8830 nM | 61.8% | 6310 nM | 21500 nM | 636 nM | 32.6% |  |  | 4.1 | 33.8

Now from value to compound, other results behind:

Row | IC50 [1] | Liver Microsome Stability (Multiple Species): Human - % Remaining after 30 min w/NADPH [2] | IC50 [3] | Liver Microsome Stability (Multiple Species): Mouse - % Remaining after 30 min w/NADPH [4] | EC50 ([5]; Homo sapiens, U-266, 48 h) | Liver Microsome Stability (Multiple Species): Rat - % Remaining after 30 min w/NADPH [6] | EC50 ([7]; Homo sapiens, NCI-H929, 48 h) | IC50 [8] | IC50 [9] | Liver Microsome Stability (Multiple Species): Monkey - % Remaining after 30 min w/NADPH [10] | EC50 ([5]; 48 hr) | EC50 ([7]; 48 hr) | Compound | 24 hr Dox Inducible IL2FLGluc 293FRT/TO: IL2/PD1 [3] | 24 hr Dox Inducible TNFaFLGluc 293FRT/TO: TNF/PD1 [8]
7 | 23.7 nM | 12.8% | 41.5 nM | 39.5% | > 25000 nM | 68.9% | 679 nM | 143 nM | 14 nM | 8.77% |  |  | CC(=O)N1CC(Oc2ccc(N3CCC[C@@H]3c3csc(NC(=O)c4cccn4Cc4ccnc(F)c4)n3)cc2)C1 [Compound A81, (R)-N-(4-(1-(4-((1-acetylazetidin-3-yl)oxy)phenyl)pyrrolidin-2-yl)thiazol-2-yl)-1-((2-fluoropyridin-4-yl)methyl)-1H-pyrrole-2-carboxamide] | 3 | 10.2
8 | 249 nM | 0.64% | 232 nM | 0.55% | > 25000 nM | 16.6% | 4000 nM | 1530 nM | 82.1 nM | 0.16% |  |  | CC(=O)N1CCC[C@@H](Oc2ccc(N3CCC[C@@H]3c3csc(NC(=O)c4cccn4Cc4ccnc(F)c4)n3)cc2)C1 [Compound A83] | 2.8 | 18.6
9 | 566 nM and 543 nM | 52.8% and 65.2% | 2110 nM and 1470 nM | 57.7% and 62.5% | 10300 nM | 90.7% and 99.6% | 6260 nM | 21600 nM and > 25000 nM | 285 nM and 294 nM | 49% and 62.5% | 7380 nM | 5290 nM | O=C(Nc1nc([C@H]2CCCN2c2ccc(OC3CNC3)cc2)cs1)c1cccn1Cc1ccnc(F)c1 [Compound A85, (R)-N-(4-(1-(4-(azetidin-3-yloxy)phenyl)pyrrolidin-2-yl)thiazol-2-yl)-1-((2-fluoropyridin-4-yl)methyl)-1H-pyrrole-2-carboxamide] | 7.4 and 5 | 75.9 and > 85.1

— patent US20230286973A1, “PROTEIN SECRETION INHIBITORS” (KEZAR LIFE SCIENCES, priority 2020, published 2023)
